Laboratory results: patent US20260240871A1, “PHARMACEUTICAL COMPOSITION FOR PREVENTION OR TREATMENT OF AGE-RELATED MUSCULOSKELETAL DISORDERS” (SEOUL NATIONAL UNIVERSITY R&DB FOUNDATION, priority 2023, published 2026)

Columns and labels:
[1] = system: senescence-induced cells (IMR90, BJ); assay: cholesterol measurement (Filipin staining, enzymatic measurement) in senescent cells; assay type: cell-based, human
Procedure: (§1) DNA damage-induced senescence was induced in human diploid fibroblasts (IMR90, BJ) by treatment with ionizing radiation (12 Gy) or bleomycin (10 μg/ml, for 24 hours). Specifically, IMR90 and BJ cells expressing hTERT (DNA damage-induced senescence; SEN), IMR90 cells co-expressing hTERT and H-RasV12 [oncogene-induced senescence; SEN (OIS)], and replication-exhausted [replicative senescent cells; SEN (REP)] IMR90 cells were prepared. Normal proliferating cells (PRO) were used as the control. […] The prepared senescent cell models were treated with probucol (10 μM) and/or glyburide (75 μM), and immunoblotting analysis was performed on lysosome immunoprecipitates (LysoIP).

[2] = system: DNA damage-induced senescent cells (SEN) and oncogene-induced senescent cells (SEN (OIS)) of human diploid fibroblasts (IMR90, BJ); assay: SASP factor and senescence marker gene expression (qRT-PCR) in senescent cell models; assay type: cell-based; settings: for expression of SASP genes (IL1A, IL1B): senescent cells (SEN), cholesterol depletion, cholesterol stimulation or lovastatin treatment; for expression of CDKN2A or CDKN1A: senescent cells
Procedure: DNA damage-induced senescence was induced in human diploid fibroblasts (IMR90, BJ) by treatment with ionizing radiation (12 Gy) or bleomycin (10 μg/ml, for 24 hours). Specifically, IMR90 and BJ cells expressing hTERT (DNA damage-induced senescence; SEN), IMR90 cells co-expressing hTERT and H-RasV12 [oncogene-induced senescence; SEN (OIS)], and replication-exhausted [replicative senescent cells; SEN (REP)] IMR90 cells were prepared. Normal proliferating cells (PRO) were used as the control.
To investigate the functional consequences of age-related changes in cholesterol levels, cellular cholesterol was depleted using methyl-β-cyclodextrin (MβCD), and multiple senescence markers were examined during DNA damage-induced aging, including senescence-associated β-galactosidase (SA-β-Gal) activity, cell cycle arrest, and expression of senescence-associated secretory phenotype (SASP) factors.
To specifically confirm the effect of increased expression of lysosomal ABCA1 on SASP activity, experiments were conducted using probucol, an ABCA1 modulator that has been reported to limit its localization to intracellular compartments including lysosomes, and glyburide, a broad-spectrum inhibitor of the ABC transport protein family that promotes channel closure of ABC transporters. The prepared senescent cell models were treated with probucol (10 μM) and/or glyburide (75 μM), and immunoblotting analysis was performed on lysosome immunoprecipitates (LysoIP).

[3] = biological target: T1, lysosomal ABCA1 (Homo sapiens, UniProt O95477); assay: immunoblotting of lysosome immunoprecipitates (LysoIP) in senescent cells; assay type: cell-based; settings: senescent cells (SEN); probucol 10 μM, glyburide 75 μM
T1 construct: endogenous ABCA1 was abundantly present in lysosomes; endogenous in cells; host or cells: senescent human diploid fibroblasts (IMR90, BJ; hTERT-expressing, DNA damage-induced senescence)
T1 sequence (O95477 whole entry): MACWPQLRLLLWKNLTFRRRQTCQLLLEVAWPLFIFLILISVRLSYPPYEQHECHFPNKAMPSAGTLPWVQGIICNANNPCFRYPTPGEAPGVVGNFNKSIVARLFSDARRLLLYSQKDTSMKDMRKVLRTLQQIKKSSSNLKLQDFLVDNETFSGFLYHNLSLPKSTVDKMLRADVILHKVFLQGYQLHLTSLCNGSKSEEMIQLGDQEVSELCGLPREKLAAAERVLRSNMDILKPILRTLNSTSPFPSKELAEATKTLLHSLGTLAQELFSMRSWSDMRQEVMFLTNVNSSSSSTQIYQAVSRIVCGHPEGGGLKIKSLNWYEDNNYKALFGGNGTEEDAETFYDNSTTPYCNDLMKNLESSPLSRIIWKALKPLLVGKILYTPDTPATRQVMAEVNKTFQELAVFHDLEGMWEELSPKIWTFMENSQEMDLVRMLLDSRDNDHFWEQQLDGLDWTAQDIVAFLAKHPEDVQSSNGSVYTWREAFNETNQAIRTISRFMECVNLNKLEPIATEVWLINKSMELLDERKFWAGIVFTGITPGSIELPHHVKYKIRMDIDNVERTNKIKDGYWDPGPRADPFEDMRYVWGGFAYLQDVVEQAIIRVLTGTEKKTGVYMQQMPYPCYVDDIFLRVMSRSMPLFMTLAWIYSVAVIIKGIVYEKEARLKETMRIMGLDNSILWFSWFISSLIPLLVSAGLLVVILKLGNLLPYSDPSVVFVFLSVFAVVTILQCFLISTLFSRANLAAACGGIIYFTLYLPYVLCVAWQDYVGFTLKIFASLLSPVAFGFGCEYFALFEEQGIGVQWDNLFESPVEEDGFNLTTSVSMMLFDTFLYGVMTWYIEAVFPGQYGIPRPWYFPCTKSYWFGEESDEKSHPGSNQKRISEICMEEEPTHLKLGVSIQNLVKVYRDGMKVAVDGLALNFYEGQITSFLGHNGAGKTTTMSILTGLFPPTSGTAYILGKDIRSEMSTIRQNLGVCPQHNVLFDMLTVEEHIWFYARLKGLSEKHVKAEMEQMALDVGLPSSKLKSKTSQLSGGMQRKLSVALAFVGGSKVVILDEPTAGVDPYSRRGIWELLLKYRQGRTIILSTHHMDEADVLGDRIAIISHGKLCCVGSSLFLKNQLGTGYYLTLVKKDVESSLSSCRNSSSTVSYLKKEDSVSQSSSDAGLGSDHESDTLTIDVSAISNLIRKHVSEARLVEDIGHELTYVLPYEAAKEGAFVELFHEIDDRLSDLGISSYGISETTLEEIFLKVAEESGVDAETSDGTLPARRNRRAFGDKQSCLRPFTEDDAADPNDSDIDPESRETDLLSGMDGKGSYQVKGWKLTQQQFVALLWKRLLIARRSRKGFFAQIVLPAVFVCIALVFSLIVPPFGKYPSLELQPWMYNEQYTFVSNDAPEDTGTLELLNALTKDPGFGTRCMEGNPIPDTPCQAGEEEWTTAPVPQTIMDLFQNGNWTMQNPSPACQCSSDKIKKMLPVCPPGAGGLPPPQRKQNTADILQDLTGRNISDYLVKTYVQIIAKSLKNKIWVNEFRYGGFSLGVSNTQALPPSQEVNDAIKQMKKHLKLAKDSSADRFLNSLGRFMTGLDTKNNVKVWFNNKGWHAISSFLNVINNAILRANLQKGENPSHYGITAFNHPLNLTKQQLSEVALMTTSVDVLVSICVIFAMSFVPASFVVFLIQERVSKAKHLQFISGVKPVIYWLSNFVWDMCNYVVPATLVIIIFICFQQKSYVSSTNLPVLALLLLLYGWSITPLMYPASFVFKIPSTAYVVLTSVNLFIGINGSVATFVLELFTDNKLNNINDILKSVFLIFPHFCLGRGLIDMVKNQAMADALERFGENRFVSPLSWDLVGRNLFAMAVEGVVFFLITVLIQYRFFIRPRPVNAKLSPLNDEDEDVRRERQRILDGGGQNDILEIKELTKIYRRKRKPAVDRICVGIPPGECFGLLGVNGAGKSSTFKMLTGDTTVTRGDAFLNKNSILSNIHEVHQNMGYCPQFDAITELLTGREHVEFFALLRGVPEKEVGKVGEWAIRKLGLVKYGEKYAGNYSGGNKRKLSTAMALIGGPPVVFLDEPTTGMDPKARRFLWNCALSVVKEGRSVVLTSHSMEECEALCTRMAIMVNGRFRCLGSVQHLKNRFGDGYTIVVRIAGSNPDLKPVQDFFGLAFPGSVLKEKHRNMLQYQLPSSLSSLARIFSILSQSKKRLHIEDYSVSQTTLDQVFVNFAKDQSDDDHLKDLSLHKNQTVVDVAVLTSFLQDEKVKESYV
Procedure: as §1, with “control. It was analyzed how ABCA1, which mediates cholesterol transport at the plasma membrane, is involved in cholesterol accumulation.” for “control.”

[4] = system: mouse primary cultured chondrocytes (SEN); assay: SASP regulation in senescent mouse primary cultured chondrocytes (SEN); assay type: cell-based; settings: probucol 10 μM, glyburide 75 μM, lovastatin 2 μM
Procedure: Mouse primary cultured chondrocytes were isolated from the femoral condyle and tibial plateau of 5-day-old ICR mice.
The ABCA1-deficient mouse primary chondrocyte model was prepared using siRNAs of SEQ ID NOs: 5 to 8. • ABCA1 siRNA #1: SEQ ID NO. 5 • ABCA1 siRNA #2: SEQ ID NO. 6 • ABCA1 siRNA #3: SEQ ID NO. 7 • ABCA1 siRNA #4: SEQ ID NO. 8
Senescence of chondrocytes promotes age-related musculoskeletal disorders. The correlation between cholesterol metabolism and ABCA1 was analyzed in a DNA damage-induced aging model (SEN) of mouse primary cultured chondrocytes isolated from the femoral condyles and tibial plateaus of 5-day-old ICR mice.
When ABCA1 was depleted in mouse primary cultured chondrocytes (SEN), the expression of SASP genes, including Mmp3, Mmp13 and Cxcl1, was suppressed, while the expression of Cdkn2a remained unchanged (FIG. 11B). […] Induction of cholesterol depletion inhibited the sustained activation pattern of mTORC1 (FIG. 11D), which was consistent with the results from the senescent cell model (in vitro) in Example 1. Therefore, it was confirmed that the lysosomal ABCA1 gene is a major factor in SASP regulation in vivo.

[5] = system: male mice subjected to DMM surgery (post-traumatic osteoarthritis); assay: post-traumatic osteoarthritis progression after DMM surgery, intra-articular injection; assay type: in vivo, mouse; settings: for osteoarthritis progression / cartilage destruction in knee joints (Safranin O staining) / expression levels of SASP factors (IL6, MMP13) and senescence markers (p16, nuclear HMGB1) / osteoarthritis-related pain symptoms / pain indicators: intra-articular; for osteoarthritis progression / cartilage destruction in knee joints (Safranin O staining): probucol 200 μM 10 μl weekly for 6 weeks, hydrogel with 3 mM glyburide 10 μl every 10 days for 10 weeks; for expression levels of SASP factors (IL6, MMP13) and senescence markers (p16, nuclear HMGB1) / osteoarthritis-related pain symptoms / pain indicators: probucol 200 μM weekly for 6 weeks, 3 mM glyburide hydrogel every 10 days for 10 weeks
Procedure: In the case of mice, male (C57BL/6J) mice were used since estrogen in female mice may influence osteoarthritis progression and serve as a confounding factor. Post-traumatic osteoarthritis was induced in 12-week-old male mice by destabilization of the medial meniscus (DMM) surgery. To investigate the role of lysosomal cholesterol partitioning regulated by ABCA1 in age-related inflammation in vivo, ABCA1 modulators were administered to male mice subjected to DMM surgery, and their effects on the progression of post-traumatic osteoarthritis were observed. Male mice subjected to either DMM surgery or sham surgery were intra-articularly injected with 10 μl of probucol (200 μM) dissolved in DMSO once a week for 6 weeks, or with 10 μl of PBS-suspended hydrogel containing 3 mM glyburide (PBS:hydrogel=1:1) every 10 days for 10 weeks. After the treatment period, the mice were sacrificed.

[6] = system: mTORC1; assay: mTORC1 activity in senescent cells; assay type: cell-based, human
Procedure: as §1

[7] = SEN and SEN (OIS), glyburide 75 μM
[8] = DNA damage-induced senescent cells (SEN) lacking ABCA1, probucol 10 μM
[9] = intra-articular probucol 200 μM weekly for 6 weeks

expression of lysosomal ABCA1 (LysoIP immunoblot) [3] | Molecule | expression of SASP genes (IL1A, IL1B) [2] | expression of CDKN2A or CDKN1A [2] | SASP factors (Mmp3, Mmp13, Cxcl1) [4] | osteoarthritis progression / cartilage destruction in knee joints (Safranin O staining) [5] | expression levels of SASP factors (IL6, MMP13) and senescence markers (p16, nuclear HMGB1) [5] | osteoarthritis-related pain symptoms / pain indicators [5] | further results
 | methyl-β-cyclodextrin [MBCD] | reduced |  |  |  |  |  | cholesterol levels ([1]; senescence-induced cells, cholesterol-depleted (MBCD+) conditions): decreased
 | CC(C)CCC[C@@H](C)[C@H]1CC[C@H]2[C@@H]3CC=C4C[C@@H](O)CC[C@]4(C)[C@H]3CC[C@]12C [cholesterol] | significantly increased | little effect |  |  |  |  | 
decrease | COc1ccc(Cl)cc1C(=O)NCCc1ccc(S(=O)(=O)NC(=O)NC2CCCCC2)cc1 [glyburide] |  |  | suppressed | alleviated | decreased | amelioration | lysosomal cholesterol accumulation [1, 7]: inhibited; SASP activity [2, 7]: inhibited; SASP activation / SASP factor expression induced by probucol ([2]; senescence-induced cells treated with probucol plus test substance): completely suppressed
further enhanced | CC(C)(Sc1cc(C(C)(C)C)c(O)c(C(C)(C)C)c1)Sc1cc(C(C)(C)C)c(O)c(C(C)(C)C)c1 [probucol] |  | minimal effect | upregulated | worsened | increased | worsened | cholesterol accumulation (lysosomal) ([1]; DNA damage-induced senescent cells (SEN), probucol 10 μM): promoted; SASP (IL1A, IL1B) activation [2, 8]: not activated; SASP activity ([2]; oncogene-induced senescent cells (SEN (OIS)), probucol 10 μM): increased; SASP activity ([2]; senescence-induced cells (SEN), probucol treatment): increased; mTORC1 activation [6, 8]: not activated; mTORC1 activity ([6]; senescence-induced cells, probucol treatment): activation; Osteoarthritis Research Society International (OARSI) grades [5, 9]: higher; dynamic and static weight-bearing capacity [5, 9]: impaired; hindlimb withdrawal threshold [5, 9]: reduced
 | CC[C@H](C)C(=O)O[C@H]1C[C@@H](C)C=C2C=C[C@H](C)[C@H](CC[C@@H]3C[C@@H](O)CC(=O)O3)[C@H]21 [lovastatin] | suppressed | without affecting | suppressed |  |  |  | expression of the cholesterol transporter gene ABCA1 ([2]; senescent cells vs normal proliferating cells (PRO)): also suppressed
